Values of other authors in US11357716B2, “Sunscreen compositions” (Kobo Products, Inc., priority 2016, dated 2022).

Assays:
[1] = Active: BEMT 4%
[2] = Active: BEMT 4%; remark: listed apart in the source

SMILES: CCCCC(CC)COc1ccc(-c2nc(-c3ccc(OC)cc3)nc(-c3ccc(OCC(CC)CCCC)cc3O)n2)c(O)c1 (centres unmarked) [BEMT, bis-ethylhexyloxyphenol methoxyphenyl triazine]
- SPF in vivo [1]: in vivo = 7.3 ± 1.2
- UVA-PF in vivo [2]: in vivo = 7.6 ± 2.2
